Key:
THP-1 (AML) cells = assay: LSD1 CD11b Cellular Assay (flow cytometry); format: cell-based; conditions: Homo sapiens, 96 h; CD11b expression in THP-1 cells, 4 days
Procedure: To analyze LSD1 inhibitor efficacy in cells, a CD11b flow cytometry assay was performed. LSD1 inhibition induces CD11b expression in THP-1 (AML) cells which can be measured by flow cytometry. […] LSD1 test compounds were serially diluted in DMSO. The dilutions were added to each well accordingly to a final concentration of 0.2% DMSO. The cells were incubated at 37 degrees Celsius in 5% CO2 for 4 days. 250 μL of each well was transferred to a well in a 96 well round bottom plate. The plate was centrifuged at 1200 rpm at 4 degrees Celsius in a Beckman Coulter Alegra 6KR centrifuge for 5 minutes. The media was removed leaving the cells at the bottom of the wells. The cells were washed in 100 μL cold HBSS (Hank's Balanced Salt Solution) plus 2% BSA (Bovine Serum Albumin) solution and centrifuged at 1200 rpm at 4 degrees Celsius for 5 minutes. The wash was removed. […] The cells were centrifuged and washed two times in 100 μl HBSS plus 2% BSA. After the final spin the cells were resuspended in 100 μL HBSS plus 2% BSA containing 1 ug/mL DAPI (4′,6-diamidino-2-phenylindole). The cells were then analyzed by flow cytometry in a BD FACSAria machine. Cells were analyzed for CD11b expression. The percent of CD11b expressing cells for each inhibitor concentration was used to determine an IC50 curve for each compound analyzed.

full-length human LSD1 = full-length human LSD1 (Homo sapiens (Human), UniProt O60341); assay: In Vitro Enzyme Inhibition Assay—LSD-1 (TR-FRET); format: biochemical; conditions: H3K4me1-biotin labeled peptide
Procedure: This assay determines the ability of a test compound to inhibit LSD1 demethylase activity. E. coli expressed full-length human LSD1 (Accession number 060341) was purchased from Active Motif (Cat#31334).
The enzymatic assay of LSD1 activity is based on Time Resolved-Fluorescence Resonance Energy Transfer (TR-FRET) detection. The inhibitory properties of compounds to LSD1 were determined in 384-well plate format under the following reaction conditions: 0.1-0.5 nM LSD1, 50 nM H3K4me1-biotin labeled peptide (Anaspec cat #64355), 2 μM FAD in assay buffer of 50 mM HEPES, pH7.3, 10 mM NaCl, 0.005% Brij35, 0.5 mM TCEP, 0.2 mg/ml BSA. Reaction product was determined quantitatively by TR-FRET after the addition of detection reagent Phycolink Streptavidin-allophycocyanin (Prozyme) and Europium-anti-unmodified histone H3 lysine 4 (H3K4) antibody (PerkinElmer) in the presence of LSD1 inhibitor such as 1.8 mM of Tranylcypromine hydrochloride (2-PCPA) in LANCE detection buffer (PerkinElmer) to final concentration of 12.5 nM and 0.25 nM respectively.
The assay reaction was performed according to the following procedure: 2 μL of the mixture of 150 nM H3K4me1-biotin labeled peptide with 2 μL of 11-point serial diluted test compound in 3% DMSO were added to each well of plate, followed by the addition of 2 μL of 0.3 nM LSD1 and 6 μM of FAD to initiate the reaction. The reaction mixture was then incubated at room temperature for one hour, and terminated by the addition of 6 μL of 1.8 mM 2-PCPA in LANCE detection buffer containing 25 nM Phycolink Streptavidin-allophycocyanin and 0.5 nM Europium-anti-unmodified H3K4 antibody. Enzymatic reaction is terminated within 15 minutes if 0.5 LSD1 enzyme is used in the plate. Plates were read by EnVision Multilabel Reader in TR-FRET mode (excitation at 320 nm, emission at 615 nm and 665 nm) after 1 hour incubation at room temperature. A ratio was calculated (665/615) for each well and fitted to determine inhibition constant (IC50).
The ability of the compounds disclosed herein to inhibit LSD1 activity was quantified and the respective IC50 value was determined. Table 3 provides the IC50 values of various substituted heterocyclic compounds disclosed herein.

With `COc1ccc(-n2c(-c3ccc(C#N)c(F)c3)nc(N3CCC(N)CC3)cc2=O)cc1F` [Example 30, 4-[4-(4-aminopiperidin-1-yl)-1-(3-fluoro-4-methoxyphenyl)-6-oxopyrimidin-2-yl]-2-fluorobenzonitrile] the IC50 (THP-1 (AML) cells) was 100 to 1000 nM and the IC50 (full-length human LSD1) was ≤ 100 nM.

In the case of `N#Cc1ccc(-c2nc(N3CCC4CNCC4C3)cc(=O)n2-c2ccc(C3CC3)cc2)cc1F` (stereo not shown) [Example 28, 4-[4-(1,2,3,3a,4,6,7,7a-octahydropyrrolo[3,4-c]pyridin-5-yl)-1-(4-cyclopropylphenyl)-6-oxopyrimidin-2-yl]-2-fluorobenzonitrile], the IC50 (THP-1 (AML) cells) is reported as < 100 nM and the IC50 (full-length human LSD1) is reported as ≤ 100 nM.

In the case of `Cc1ccc(-c2sc(C(=O)N3CCC[C@@H](N)C3)nc2-c2ccc(C#N)cc2)cc1` [Example 19, 4-{2-[(3R)-3-aminopiperidine-1-carbonyl]-5-(4-methylphenyl)-1,3-thiazol-4-yl}benzonitrile], the IC50 (THP-1 (AML) cells) is reported as < 100 nM and the IC50 (full-length human LSD1) is reported as ≤ 100 nM.

In the case of `N#Cc1ccc(-c2nc(N3CCC(N)CC3)sc2-c2cnn(CC(F)(F)F)c2)cc1` [Example 12, 4-[2-(4-aminopiperidin-1-yl)-5-[1-(2,2,2-trifluoroethyl)-1H-pyrazol-4-yl]-1,3-thiazol-4-yl]benzonitrile], the IC50 (THP-1 (AML) cells) is reported as < 100 nM and the IC50 (full-length human LSD1) is reported as ≤ 100 nM.

In the case of `Cn1cc2cc(-n3c(-c4ccc(C#N)c(F)c4)nc(N4CCC(N)CC4)cc3=O)ccc2n1` [Example 31, 4-[4-(4-aminopiperidin-1-yl)-1-(2-methylindazol-5-yl)-6-oxopyrimidin-2-yl]-2-fluorobenzonitrile], the IC50 (THP-1 (AML) cells) is reported as 100 to 1000 nM and the IC50 (full-length human LSD1) is reported as ≤ 100 nM.

For `Cn1cnc2cc(-c3sc(C(=O)N4CCC[C@@H](N)C4)nc3-c3ccc(C#N)cc3)ccc21` [Example 16, 4-{2-[(3R)-3-aminopiperidine-1-carbonyl]-5-(1-methyl-1H-1,3-benzodiazol-5-yl)-1,3-thiazol-4-yl}benzonitrile], the IC50 (THP-1 (AML) cells) was < 100 nM and the IC50 (full-length human LSD1) was ≤ 100 nM.

For `N#Cc1ccc(-c2nc(N3CCC(N)CC3)sc2-c2cnn(CC3CC3)c2)cc1` [Example 14, 4-[2-(4-aminopiperidin-1-yl)-5-[1-(cyclopropylmethyl)-1H-pyrazol-4-yl]-1,3-thiazol-4-yl]benzonitrile], the IC50 (THP-1 (AML) cells) was 100 to 1000 nM and the IC50 (full-length human LSD1) was ≤ 100 nM.

With `Cn1ncc2cc(-c3sc(N4CCC(N)CC4)nc3-c3ccc(C#N)cc3)cnc21` [Example 4, 4-[2-(4-aminopiperidin-1-yl)-5-{1-methyl-1H-pyrazolo[3,4-b]pyridin-5-yl}-1,3-thiazol-4-yl]benzonitrile] the IC50 (THP-1 (AML) cells) was < 100 nM and the IC50 (full-length human LSD1) was ≤ 100 nM.

`Cn1cnc2cc(-c3sc(C(=O)N4CCC[C@@H](N)C4)nc3-c3ccc(C#N)cc3)cnc21` [Example 20, 4-{2-[(3R)-3-aminopiperidine-1-carbonyl]-5-{3-methyl-3H-imidazo[4,5-b]pyridin-6-yl}-1,3-thiazol-4-yl}benzonitrile] was tested, and the IC50 (THP-1 (AML) cells) was 100 to 1000 nM and the IC50 (full-length human LSD1) was ≤ 100 nM.

For `N#Cc1ccc(-c2nc(N3CCC(N)CC3)cc(=O)n2-c2ccc(C3CC3)c(F)c2)cc1F` [Example 33, 4-[4-(4-aminopiperidin-1-yl)-1-(4-cyclopropyl-3-fluorophenyl)-6-oxopyrimidin-2-yl]-2-fluorobenzonitrile], the IC50 (THP-1 (AML) cells) was < 100 nM and the IC50 (full-length human LSD1) was ≤ 100 nM.

For `N#Cc1ccc(-c2nc(C(=O)N3CCC[C@@H](N)C3)sc2-c2cnn(CC(F)(F)F)c2)cc1` [Example 21, 4-{2-[(3R)-3-aminopiperidine-1-carbonyl]-5-[1-(2,2,2-trifluoroethyl)-1H-pyrazol-4-yl]-1,3-thiazol-4-yl}benzonitrile], the IC50 (THP-1 (AML) cells) was < 100 nM and the IC50 (full-length human LSD1) was ≤ 100 nM.

In the case of `Cn1cnc2cc(-c3sc(N4CCC(N)CC4)nc3-c3ccc(C#N)cc3)cnc21` [Example 9, 4-[2-(4-aminopiperidin-1-yl)-5-{3-methyl-3H-imidazo[4,5-b]pyridin-6-yl}-1,3-thiazol-4-yl]benzonitrile], the IC50 (THP-1 (AML) cells) is reported as < 100 nM and the IC50 (full-length human LSD1) is reported as ≤ 100 nM.

In the case of `Cn1cnc2cc(-c3sc(N4CC[C@@H]5CNC[C@@H]5CC4)nc3-c3ccc(C#N)cc3)ccc21` [Example 10, cis-4-(2-{decahydropyrrolo[3,4-d]azepin-6-yl}-5-(1-methyl-1H-1,3-benzodiazol-5-yl)-1,3-thiazol-4-yl)benzonitrile], the IC50 (THP-1 (AML) cells) is reported as < 100 nM and the IC50 (full-length human LSD1) is reported as ≤ 100 nM.

In the case of `N#Cc1ccc(-c2nc(N3CC[C@@H]4CNC[C@@H]4CC3)sc2-c2cnn(CC(F)(F)F)c2)cc1` [Example 13, 4-(2-{decahydropyrrolo[3,4-d]azepin-6-yl}-5-[1-(2,2,2-trifluoroethyl)-1H-pyrazol-4-yl]-1,3-thiazol-4-yl)benzonitrile], the IC50 (THP-1 (AML) cells) is reported as < 100 nM and the IC50 (full-length human LSD1) is reported as ≤ 100 nM.

In the case of `Cn1cnc2cc(-c3sc(C(=O)N4CCC(N)CC4)nc3-c3ccc(C#N)cc3)ccc21` [Example 18, 4-[2-(4-aminopiperidine-1-carbonyl)-5-(1-methyl-1H-1,3-benzodiazol-5-yl)-1,3-thiazol-4-yl]benzonitrile], the IC50 (THP-1 (AML) cells) is reported as < 100 nM and the IC50 (full-length human LSD1) is reported as ≤ 100 nM.

With `Cn1ncc2cc(-c3sc(N4CCC(N)CC4)nc3-c3ccc(C#N)cc3)ccc21` [Example 1, 4-[2-(4-aminopiperidin-1-yl)-5-(1-methyl-1H-indazol-5-yl)-1,3-thiazol-4-yl]benzonitrile] the IC50 (THP-1 (AML) cells) was < 100 nM and the IC50 (full-length human LSD1) was ≤ 100 nM.

`Cn1ncc2cc(-c3sc(N4CC[C@@H]5CNC[C@@H]5CC4)nc3-c3ccc(C#N)cc3)cnc21` [Example 11, cis-4-(2-{decahydropyrrolo[3,4-d]azepin-6-yl}-5-{1-methyl-1H-pyrazolo[3,4-b]pyridin-5-yl}-1,3-thiazol-4-yl)benzonitrile] was tested, and the IC50 (THP-1 (AML) cells) was < 100 nM and the IC50 (full-length human LSD1) was ≤ 100 nM.

— patent publication US10100046B2, “Inhibitors of lysine specific demethylase-1” (Celgene Quanticel Research, Inc., priority 2014, dated 2018)
